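Cells were grown in 96-well plates and exposed to each compound for 48 hours at five concentrations; endpoints were interpolated linearly between bracketing concentrations, or set to the highest concentration if not reached. At the GI50, growth is halved. TGI denotes the concentration required for complete inhibition of growth.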
What was measured:
Experiment in all cases: NCI tumour cell line growth inhibition, 48 h
UACC-257 melanoma = test system: UACC-257 melanoma
HL-60(TB) leukemia = test system: HL-60(TB) leukemia
NCI-H522 lung = test system: NCI-H522 lung
SN12C renal = test system: SN12C renal
NCI-H226 lung = test system: NCI-H226 lung
A498 renal = test system: A498 renal
ACHN renal = test system: ACHN renal
SK-MEL-5 melanoma = test system: SK-MEL-5 melanoma
RXF 393 renal = test system: RXF 393 renal
BT-549 breast = test system: BT-549 breast

SMILES	GI50 (UACC-257 melanoma)	TGI (UACC-257 melanoma)	GI50 (HL-60(TB) leukemia)	TGI (HL-60(TB) leukemia)	GI50 (NCI-H522 lung)	TGI (NCI-H522 lung)	GI50 (SN12C renal)	TGI (SN12C renal)	GI50 (NCI-H226 lung)	TGI (NCI-H226 lung)	GI50 (A498 renal)	TGI (A498 renal)	GI50 (ACHN renal)	TGI (ACHN renal)	GI50 (SK-MEL-5 melanoma)	TGI (SK-MEL-5 melanoma)	TGI (RXF 393 renal)	GI50 (BT-549 breast)	TGI (BT-549 breast)	GI50 (RXF 393 renal)
[Cl-].[Dy+3].[O-]/N=C(\c1ccccc1)c1ccccn1.[O-]/N=C(\c1ccccc1)c1ccccn1.[O-]/N=C(\c1ccccc1)c1ccccn1	24.5 µM	67.8 µM	18.4 µM	58.4 µM	19.5 µM	65.6 µM	46.4 µM	> 100 µM	17.3 µM	58.4 µM	25.8 µM	> 100 µM	34.6 µM	> 100 µM	23.7 µM	61.7 µM	–	–	–	–
O=C1C2c3[nH]c4ccccc4c3C3CCCCCCC3C2C(=O)N1c1ccccc1 (centres undefined)	–	–	–	–	–	–	–	22.2 µM	–	–	–	39.9 µM	–	38.4 µM	–	> 100 µM	23.8 µM	–	–	–
CC(C)(C)C1C=C(Sc2ccccc2)C(=O)O1 (centres undefined)	–	> 100 µM	–	55.7 µM	–	87.8 µM	–	> 100 µM	–	> 100 µM	–	> 100 µM	–	> 100 µM	–	–	–	–	–	–
COC(=O)/C(=N/NC(=O)C[N+](C)(C)C)C(C(=O)OC)C(=O)C(=O)Nc1ccc(F)cc1 (centres undefined)	–	> 100 µM	–	> 100 µM	–	> 100 µM	–	> 100 µM	–	> 100 µM	–	> 100 µM	–	> 100 µM	–	> 100 µM	> 100 µM	–	–	–
CC1=CC(=Nc2ccc(N(CCCl)CCCl)cc2)C=C(C)C1=O	1.49 µM	5.12 µM	0.309 µM	2.9 µM	–	–	1.01 µM	> 26.7 µM	1.2 µM	4.83 µM	1.68 µM	4.13 µM	0.29 µM	1.61 µM	1.72 µM	5.17 µM	–	1.46 µM	3.16 µM	–
C/C(CC(=O)Nc1ccc(C)cc1C)=N/N=C(N)N	–	> 100 µM	–	> 100 µM	–	> 100 µM	–	–	–	> 100 µM	–	> 100 µM	–	> 100 µM	–	> 100 µM	> 100 µM	–	–	–
COC(=O)c1c/c(=N\NC(=O)CC(=O)Nc2ccccc2OC)c2ccccc2o1	–	–	–	> 100 µM	–	> 100 µM	–	> 100 µM	–	> 100 µM	–	> 100 µM	–	> 100 µM	–	> 100 µM	–	–	–	–
COC12C=C(C)C(CC1)CC2C(=O)O (centres undefined)	–	> 100 µM	–	> 100 µM	–	> 100 µM	–	> 100 µM	–	> 100 µM	–	> 100 µM	–	> 100 µM	–	> 100 µM	> 100 µM	–	–	–
Cc1cc2c(cc1C)[n+](=O)c(C(=O)C/C(=N/NC(=O)CC#N)C(=O)Nc1ccccc1C(F)(F)F)c(C)n2[O-]	–	> 100 µM	–	86 µM	–	35.5 µM	–	> 100 µM	–	> 100 µM	–	> 100 µM	–	> 100 µM	–	–	> 100 µM	–	–	–
O=C1c2cc(Cl)ccc2S(=O)(=O)c2c(NCCCNCCO)nc3ccccc3c21	1.55 µM	3.42 µM	2.1 µM	6.79 µM	0.323 µM	1.42 µM	1.25 µM	2.51 µM	10.1 µM	22.7 µM	2.95 µM	9.34 µM	0.493 µM	1.63 µM	2.5 µM	6.48 µM	–	3.99 µM	14.6 µM	–
C[C@@H]1OC(O)[C@@H](F)[C@H](O)[C@@H]1O (some centres undefined)	> 100 µM	> 100 µM	> 100 µM	> 100 µM	> 100 µM	> 100 µM	> 100 µM	> 100 µM	> 100 µM	> 100 µM	> 100 µM	> 100 µM	> 100 µM	> 100 µM	> 100 µM	> 100 µM	–	> 100 µM	> 100 µM	–
Cc1cccc(C)c1NC(=O)C(=O)C1C(=O)NC(=O)NC1=O	–	> 100 µM	–	> 100 µM	–	> 100 µM	–	> 100 µM	–	> 100 µM	–	> 100 µM	–	> 100 µM	–	> 100 µM	> 100 µM	–	–	–
CCC(C)c1c(Cl)nc(Cl)nc1Cl (centres undefined)	–	–	–	> 100 µM	–	2.51 µM	–	85.4 µM	–	7.75 µM	–	–	–	11.9 µM	–	13 µM	20.7 µM	–	4.65 µM	–
COC(=O)/C=C/c1cc(OC)c(OC)c(OC)c1	–	> 100 µM	–	> 100 µM	–	> 100 µM	–	> 100 µM	–	> 100 µM	–	–	–	> 100 µM	–	> 100 µM	> 100 µM	–	–	–
COc1ccc(/C(COc2c(-c3ccccc3)oc3ccccc3c2=O)=N\O)cc1	17.8 µM	> 50 µM	20 µM	> 50 µM	11.1 µM	28.5 µM	10.6 µM	33.9 µM	20.8 µM	> 50 µM	–	–	10.6 µM	26.3 µM	9.61 µM	20.1 µM	> 50 µM	12.3 µM	25.6 µM	31.9 µM
Brc1cccc(C=NC23CC4CC(CC(C4)C2)C3)c1	–	> 100 µM	–	> 100 µM	–	> 100 µM	–	> 100 µM	–	> 100 µM	–	> 100 µM	–	> 100 µM	–	> 100 µM	> 100 µM	–	–	–
COc1ccc(C2=CC3CCC2C3)cc1 (centres undefined)	–	> 100 µM	–	> 100 µM	–	> 100 µM	–	> 100 µM	–	–	–	> 100 µM	–	> 100 µM	–	> 100 µM	> 100 µM	–	–	–
CC1=NN(C(=O)Nc2ccccc2)C(=O)C2CCC(=O)N12 (centres undefined)	–	> 100 µM	–	> 100 µM	–	–	–	> 100 µM	–	–	–	> 100 µM	–	> 100 µM	–	> 100 µM	> 100 µM	–	–	–
CCC[CH2][Sn]1([CH2]CCC)[O]Cc2nc(C)ccc2[O]1	5.6 µM	20.2 µM	1.58 µM	4.64 µM	1.19 µM	2.5 µM	11.3 µM	23.3 µM	14 µM	27.1 µM	13.3 µM	26.8 µM	12 µM	24.4 µM	13 µM	25.9 µM	19.9 µM	–	–	8.15 µM
O=C(c1ccccc1)c1nnc(C(=O)c2ccccc2)nn1	–	> 344 µM	–	> 344 µM	–	> 344 µM	–	> 344 µM	–	> 344 µM	–	–	–	> 344 µM	–	> 344 µM	261 µM	–	–	–
